{"source": "a melting point compilation (Tetko et al.; mined from patent text by program, amines drawn as free bases though some values may be those of a salt)", "note": "Residues, ends and D or L forms follow the SMILES beside them. *: point of attachment. Cbz = O=C(OCc1ccccc1)*", "data": [{"units": {"melting point": "°C"}, "values": [{"compound": "COC(=O)C(Sc1ccccc1)c1ccc(I)cc1", "note": "(stereo not drawn)", "melting point": "62.5 to 65"}, {"compound": "CCOc1sc(C(=O)N2CCCC2)c2c1-c1oncc1C(C)(C)C2", "melting point": "123 to 126"}, {"compound": "O=S(=O)(c1ccc(Cl)cc1)N1CCCC1c1ccccc1F", "note": "(racemic)", "melting point": 134}, {"compound": "O=C(O)Cc1cc(C(=O)c2ccccc2)ccc1O", "melting point": 205}, {"compound": "COC(=O)Cc1ccc(OCC2CN(c3ccc(C#N)cc3)C(=O)O2)cc1", "note": "(stereo not drawn)", "melting point": "114 to 115"}, {"compound": "CCCCCCCCCCCCCCSCC(O)CNCCO", "note": "(stereo not drawn)", "melting point": "71.4 to 73.2"}, {"compound": "CCOC(=O)NNC(=O)NCCCCl", "melting point": "105 to 106"}, {"compound": "O=C(O)C(=O)c1ccc(OCCCn2c(=O)ccc3ccccc32)cc1", "melting point": "183 to 186"}, {"compound": "COc1ccc(N2C(=O)c3ccc(Cl)cc3C2CC(=O)N2CCC3(CC2)OCCO3)cc1", "note": "(stereo not drawn)", "melting point": "156 to 157"}, {"compound": "CC1Oc2cc(C3=NNC(=O)CC3)ccc2NC1=O", "note": "(stereo not drawn)", "melting point": "294 to 295"}, {"compound": "Cc1cccc(-n2c(Cn3ccnc3)nc3ccccc32)c1", "melting point": "91 to 93"}, {"compound": "CNc1nc(-c2cccc(-c3ccc4nccn4c3)c2)c2cc(OC)c(OC)cc2n1", "melting point": "237 to 239"}, {"compound": "Cc1c(Cl)cccc1S(=O)(=O)Nc1ccc2c(c1)nc(C)n2C", "melting point": "283 to 284"}, {"compound": "O=[N+]([O-])c1ccc(OCc2ccc(Cl)cc2)cc1F", "melting point": "86 to 88"}, {"compound": "CCCCCc1ccc(-c2ccc(-c3ccc(CC)cc3)cc2F)s1", "melting point": 44}, {"compound": "CCCCS(=O)(=O)NC(CNS(=O)(=O)c1cccc(C(=O)C2CCC3(CCNCC3)CC2)c1)C(=O)O", "note": "(stereo not drawn)", "melting point": "225 to 235"}, {"compound": "O=C1CCCc2nc(C#Cc3ccccc3)ccc21", "melting point": "121 to 122"}, {"compound": "CCOC(=O)C1=C(C)Nc2ncn(C(C)C)c(=O)c2C1c1ccccc1F", "note": "(stereo not drawn)", "melting point": "178 to 180"}, {"compound": "Cc1cc(-c2cncc(OC3SCC(O)C(O)C3O)c2)ccc1C#N", "note": "(stereo not drawn)", "melting point": "198 to 200"}, {"compound": "CC(C)=CCc1cc(C2CCc3ccc(O)cc3O2)ccc1O", "note": "(stereo not drawn)", "melting point": "116 to 117"}, {"compound": "CONCc1nc2c(N)nc3cc(-c4cccnc4)cnc3c2n1CC(C)(C)O", "melting point": "195 to 197"}, {"compound": "Cc1cccc(C(=O)NC(Nc2c(Nc3cccnc3)c(=O)c2=O)C(C)(C)Cc2ccccc2)c1", "note": "(stereo not drawn)", "melting point": "234 to 235"}, {"compound": "CC[C@H](COC)n1cc(Cl)nc(N2CCc3cc(OC)cc(Br)c32)c1=O", "melting point": "100 to 102"}, {"compound": "Nc1ccc([C@@H](O)CNC[C@H]2CCc3cc(NS(=O)(=O)c4ccc(-n5nnn(CCCC6CCCCC6)c5=O)cc4)ccc3O2)cn1", "melting point": "94 to 95"}, {"compound": "O=C1c2cc(CCCCOC(=O)C(F)(F)F)ccc2OCc2sccc21", "melting point": "65.5 to 67.5"}, {"compound": "CCOC(=O)N1CCc2nc(-c3ccncc3)cc(=O)n2CC1", "melting point": "191 to 193"}, {"compound": "CC1(C)CC(NC(=O)Nc2ccccc2)c2cc(C#N)ccc2O1", "note": "(stereo not drawn)", "melting point": "214 to 215"}, {"compound": "Cc1cc(C#CC=O)nc(Oc2cc(C(F)(F)F)nn2C)c1", "melting point": 73}, {"compound": "O=S1(=O)c2ccc(Cl)c3cccc(c23)N1CCCN1CCN(c2ccc(F)cc2)CC1", "melting point": 125}, {"compound": "CN1CCN(c2cc(C(=O)Nc3ccc4c(c3)-c3c(c(C(N)=O)nn3-c3ccc(F)cc3)CC4)ccn2)CC1", "melting point": "277 to 279"}, {"compound": "CCOC(=O)c1cnc2c(C)csc2c1Nc1ccccc1C", "melting point": "132 to 134"}, {"compound": "O=c1cc(-c2ccccc2)oc2ncc(CN3CCCC3)cc12", "melting point": "294 to 296"}, {"compound": "CC1OOC2(/C=C\\c3ccc(C(F)(F)F)cc3C(F)(F)F)CC1CC(=O)C2C", "note": "(stereo not drawn)", "melting point": 124}, {"compound": "CCC12CCC3=C(CCc4cc(OC)ccc43)C1=CCC2=O", "note": "(stereo not drawn)", "melting point": "77 to 80"}, {"compound": "Cc1cc2n(C)c3ccncc3c(=O)n2n1", "melting point": "> 300"}, {"compound": "Cc1ccc(S(=O)(=O)Nc2ccc([N+](=O)[O-])cc2Cl)cc1", "melting point": "167 to 168"}, {"compound": "COc1cc(O)cc(OC)c1/C=C/S(=O)(=O)CS(=O)(=O)/C=C/c1c(OC)cc(O)cc1OC", "melting point": "148 to 150"}, {"compound": "CCCCN(c1nc(NCC(=O)OCC)nc(N(CCCC)C2CC(C)(C)NC(C)(C)C2)n1)C1CC(C)(C)NC(C)(C)C1", "melting point": 40}, {"compound": "C=CCn1c(C)c(C)c2cnnc(OCc3ccc(Cl)cc3Cl)c21", "melting point": "98 to 99"}, {"compound": "O=[N+]([O-])c1ccccc1SNc1nc(OCc2ccc(F)cc2)ncc1F", "melting point": 184}, {"compound": "CCCCCCN(CCC12CC3CC(CC(C3)C1)C2)C(=O)NCCCc1ccncc1", "melting point": "120 to 122"}, {"compound": "Oc1ccc2c(c1CNc1ccc(F)cc1F)CCCO2", "melting point": "120 to 121"}, {"compound": "CCCCCCCCCCOc1ccc(CC(C)NCC(O)c2cccc(Cl)c2)cc1", "note": "(stereo not drawn)", "melting point": "59 to 61"}, {"compound": "CCCCCCCCCCCN(CC)C(=O)N(O)O", "melting point": "42 to 43"}, {"compound": "CC(C)(C)[N+]([O-])=CCc1ccccc1", "melting point": 143}, {"compound": "Cn1nc(-c2c(F)cccc2Cl)nc1-c1ccc(Oc2ccc(C(F)(F)F)cn2)cc1Cl", "melting point": "139 to 141"}, {"compound": "CCOC(=O)c1cn(-c2cc(OC)c(F)cc2F)c2c(C)c(N)c(F)cc2c1=O", "melting point": "232 to 235"}, {"compound": "N#Cc1ccccc1N1CCCN(Cc2cc3cc(F)ccc3[nH]2)CC1", "melting point": "194 to 198"}, {"compound": "O=C(O)CCCOc1ccc([C@H]2c3ccc(O)cc3OC[C@H]2c2ccccc2)cc1", "note": "(racemic)", "melting point": "91.5 to 94"}, {"compound": "CC[C@H](C)CNC(=O)C[C@H](O)[C@H](CC(C)C)C(=O)OC(C)(C)C", "melting point": "83 to 84"}, {"compound": "COC(=O)c1ccc(CN2CCC(=O)C(C(c3ccccc3)c3ccccc3)C2)cc1", "note": "(stereo not drawn)", "melting point": "107 to 108"}, {"compound": "N#Cc1c(Cl)c([N+](=O)[O-])cc2[nH]c(=O)c(=O)[nH]c12", "melting point": "327 to 331"}, {"compound": "O=C(O)c1ccccc1OCCN1CCC(c2cn(CCOc3ccc4c(c3)OCO4)c3ccccc23)CC1", "melting point": "123 to 125"}, {"compound": "CCc1cc(C(O)(CC)CC)ccc1-c1cc(OCc2ccc(CO)c(CO)c2)ccc1CC", "melting point": 93}, {"compound": "COc1ccccc1-c1ccc2cnc(Nc3ccc(N4CCN(CC(N)=O)CC4)c(F)c3)nn12", "melting point": 186}, {"compound": "CCOC(=O)C1Cc2ccccc2N1C(=O)c1c(O)c2cc(OC)cc3c2n(c1=O)CCO3", "note": "(stereo not drawn)", "melting point": "135 to 138"}, {"compound": "Cc1ccc2c(c1)N=C(N1CCN(C)CC1)c1cc(C)sc1O2", "melting point": "146 to 148"}, {"compound": "Cc1oc(-c2ccccc2)nc1CCOc1ccc(C[C@@H](C(=O)O)N2CCN(S(=O)(=O)c3ccccc3F)CC2)cc1", "melting point": "170 to 172"}, {"compound": "CC(=O)N1CCc2cc(O)c(C(F)(F)F)cc21", "melting point": "244 to 247"}, {"compound": "COC(=O)C(CC(C)C)NC(=O)C(Cc1ccccc1)NC(=O)OCc1ccccc1", "note": "(stereo not drawn) (Cbz-Phe-Leu-OMe; configuration not given here)", "melting point": "125 to 126"}, {"compound": "O=C(O)CCC(=NO)c1ccc(-c2cccc(F)c2)cc1", "melting point": "155 to 157"}, {"compound": "CCc1nc2c(N)nc3cc(Br)cnc3c2n1CC(C)(C)O", "melting point": "235 to 236"}, {"compound": "O=S(=O)(c1ccccc1F)N1CCCC1c1ccc(F)cc1", "note": "(racemic)", "melting point": 91}, {"compound": "COc1ccc(N(C(=O)CN2C(=O)C(CO)C(=O)N(c3ccccc3)c3ccccc32)C(C)C)cc1", "note": "(stereo not drawn)", "melting point": "136 to 139"}, {"compound": "N#CCCNC(=O)c1cccc(-c2ccc3c(c2)C(Oc2ccc(Cl)cc2Cl)CC3)c1", "note": "(stereo not drawn)", "melting point": "139 to 145"}, {"compound": "N#Cc1cccc(N=C(NCC(=O)O)NCC2CCCCC2)c1", "melting point": "80 to 83"}, {"compound": "CC1Oc2ccc(Cn3ccnc3)cc2NC1=O", "note": "(stereo not drawn)", "melting point": "219 to 222"}, {"compound": "CS(=O)(=O)c1ccc(-c2cnn(-c3ccc(F)c(Cl)c3)c(=O)c2Cc2ccccc2)cc1", "melting point": "164 to 166"}]}]}
